US20040033517A1, “Compositions and methods relating to endothelial cell signaling using the protease activated receptor (PAR1)” (priority 2002, published 2004)
Where two headings read alike, the source gives them in different places.

System: human umbilical vein endothelial cells HUVEC-C
Format: cell-based
Conditions: endothelial cells
Description: Microarray Analysis. […] Total RNA was isolated followed by reverse transcription. Purified double stranded cDNA was in vitro transcribed in the presence of biotinylated dUTP and dCTP, fragmented cRNA was hybridized to the HG-U95Av2 array (Affymetrix, Santa Clara, Calif.), followed by staining with streptavidin-phycoerythrin. Arrays were scanned and analyzed using GeneChip3.1 software. […] An average fold-induction for the three independent experiments was obtained by calculating the means of the logarithm of the individual fold-increases for each agonist.

In the case of Thrombin, the “Induction (log 2), A1743606 wg51108.x1 Homo sapiens cDNA” value is reported as −0.05 log 2, the “Induction (log 2), AB002450 Homo sapiens mRNA from chromosome 5q21-22, clone-A3-A” value is reported as 0.45 log 2 and the “Induction (log 2), AB003184 Homo sapiens mRNA for ISLR” value is reported as 0.05 log 2. For the same substance, the “Induction (log 2), AB012229 fructose-6-phosphate,2-kinase/fructose-2,6-bisphosphatase” value was 0.25 log 2, the “Induction (log 2), AF000421 TTF-1 interacting peptide 12 mRNA” value was 0.20 log 2 and the “Induction (log 2), AF015451 Homo sapiens Usurpin-beta mRNA” value was 0.45 log 2. The “Induction (log 2), AF022375 Homo sapiens vascular endothelial growth factor mRNA” value was 0.75 log 2, the “Induction (log 2), AF024710 Homo sapiens vascular endothelial growth factor (VEGF) mRNA” value was 0.90 log 2 and the “Induction (log 2), AF042083 BH3 interacting domain death agonist (BID) mRNA” value was 0.20 log 2. The “Induction (log 2), AF094481 trinucleotide repeat DNA binding protein p20-CGGBP (CGGBP) gene” value was 0.50 log 2, the “Induction (log 2), AF095154 Homo sapiens C1q-related factor mRNA” value was 0.10 log 2 and the “Induction (log 2), AF098462 Homo sapiens stanniocalcin-related protein mRNA” value was 1.00 log 2. The “Induction (log 2), AJ000480 Homo sapiens mRNA for C8FW phosphoprotein” value was 1.15 log 2, the “Induction (log 2), Cluster Incl U88629 Human RNA polymerase II elongation factor ELL2” value was 0.70 log 2 and the “Induction (log 2), Cluster Incl X66360 H.sapiens mRNA PCTAIRE-2 for serine/threonine protein kinase” value was 0.35 log 2. The “Induction (log 2), D29990 Human mRNA for cationic amino acid transporter 2” value was 0.75 log 2, the “Induction (log 2), D38449 Human mRNA for G protein-coupled receptor” value was 0.10 log 2 and the “Induction (log 2), D49817 6-phosphofructo-2-kinase/fructose-2, 6-bisphosphatase mRNA” value was 0.20 log 2. The “Induction (log 2), D78579 Homo sapiens mRNA for neuron derived orphan receptor” value was 1.55 log 2, the “Induction (log 2), J04102 Human erythroblastosis virus oncogene homolog 2 (ets-2) mRNA” value was 0.50 log 2 and the “Induction (log 2), L07261 Human alpha adducin mRNA” value was 0.10 log 2. For the same substance, the “Induction (log 2), L19871 Human activating transcription factor 3 (ATF3) mRNA” value was 1.10 log 2, the “Induction (log 2), L38487 Human estrogen receptor-related protein (hERRa1) mRNA” value was 0.10 log 2 and the “Induction (log 2), M14648 Human cell adhesion protein (vitronectin) receptor alpha subunit mRNA” value was 0.60 log 2. For the same substance, the “Induction (log 2), M19481 Human follistatin gene” value was 1.30 log 2, the “Induction (log 2), M22489 Human bone morphogenetic protein 2A (BMP-2A) mRNA” value was 0.90 log 2 and the “Induction (log 2), M28130 Human interleukin 8 (IL8) gene” value was 0.40 log 2. For the same substance, the “Induction (log 2), M29039 Human transactivator (jun-B) gene” value was 0.60 log 2, the “Induction (log 2), M36820 Human cytokine (GRO-beta) mRNA” value was 0.35 log 2 and the “Induction (log 2), M59964 Human stem cell factor mRNA” value was 0.75 log 2. For the same substance, the “Induction (log 2), M64349 Human cyclin D (cyclin D1) mRNA” value was 0.00 log 2, the “Induction (log 2), M96995 epidermal growth factor receptor-binding protein GRB2 (EGFRBP-GRB2) mRNA” value was 0.05 log 2 and the “Induction (log 2), Neurofibromatosis 2 Tumor Suppressor” value was 0.55 log 2. The “Induction (log 2), Tyrosine Phosphatase, Epsilon” value was 1.40 log 2, the “Induction (log 2), U08015 HumanNF-ATc mRNA” value was 0.55 log 2 and the “Induction (log 2), U12471 Human thrombospondin-1 gene” value was 0.70 log 2. For the same substance, the “Induction (log 2), U12767 Human mitogen induced nuclear orphan receptor (MINOR) mRNA” value was 1.15 log 2, the “Induction (log 2), U15932 Human dual-specificity protein phosphatase mRNA” value was 0.60 log 2 and the “Induction (log 2), U18671 Human Stat2 gene” value was 0.05 log 2. For the same substance, the “Induction (log 2), U20816 Human nuclear factor kappa-B2 (NF-KB2) gene” value was 0.70 log 2, the “Induction (log 2), U23070 Human putative transmembrane protein (nma) mRNA” value was 1.10 log 2 and the “Induction (log 2), U25997 Homo sapiens stanniocalcin precursor (STC) mRNA” value was 1.10 log 2. The “Induction (log 2), U33838 Human NF-kappa-B p65delta3 mRNA” value was 0.10 log 2, the “Induction (log 2), U42391 Human myosin-IXb mRNA” value was −0.15 log 2 and the “Induction (log 2), U65093 Human msg1-related gene 1 (mrg1) mRNA” value was 0.95 log 2. The “Induction (log 2), U72066 Homo sapiens CtBP interacting protein CtIP (CtIP) mRNA” value was 0.70 log 2, the “Induction (log 2), U76368 Human cationic amino acid transporter-2A (ATRC2) mRNA” value was 0.75 log 2 and the “Induction (log 2), U83981 Homo sapiens apoptosis associated protein (GADD34) mRNA” value was 0.50 log 2. The “Induction (log 2), U88629/FEATURE Human RNA polymerase II elongation factor ELL2” value was 0.75 log 2, the “Induction (log 2), W28170 43a12 Homo sapiens cDNA” value was 0.15 log 2 and the “Induction (log 2), W28257 44c1 Homo sapiens cDNA” value was 0.20 log 2. For the same substance, the “Induction (log 2), X02469 Human mRNA for p53 cellular tumor antigen” value was −0.10 log 2, the “Induction (log 2), X14787 Human mRNA for thrombospondin” value was 0.40 log 2 and the “Induction (log 2), X14798 Human DNA for c-ets-1 proto-oncogene” value was 0.75 log 2. The “Induction (log 2), X16706 Human fra-2 mRNA” value was 0.50 log 2, the “Induction (log 2), X51345 Human jun-B mRNA for JUN-B protein” value was 0.75 log 2 and the “Induction (log 2), X51435 Human PRDII-BF1 gene for a DNA-binding protein” value was 0.85 log 2. The “Induction (log 2), X66360/FEATURE H.sapiens mRNA PCTAIRE-2 for serine/threonine protein kinase” value was 0.65 log 2, the “Induction (log 2), X68277 H.sapiens CL 100 mRNA for protein tyrosine phosphatase” value was 1.75 log 2 and the “Induction (log 2), X69086 H.sapiens mRNA for utrophin” value was 0.60 log 2. The “Induction (log 2), X69699 H.sapiens Pax8 mRNA” value was 0.10 log 2, the “Induction (log 2), X98248 H.sapiens mRNA for sortilin” value was −0.15 log 2 and the “Induction (log 2), Z12173 H.sapiens GNS mRNA encoding glucosamine-6-sulphatase” value was 0.60 log 2. For the same substance, the “Induction (log 2), Z12830 H.sapiens mRNA for SSR alpha subunit” value was 0.40 log 2, the “Induction (log 2), Z23115 H.sapiens bc1-xL mRNA” value was 0.10 log 2 and the “Induction (log 2), Z29083 H.sapiens 5T4 gene for 5T4 Oncofetal antigen” value was 0.10 log 2. The “Induction (log 2), Z48579 H.sapiens mRNA for disintegrin-metalloprotease (partial)” value was 0.20 log 2, the “Induction (log 2), D13540 Homo sapiens SH-PTP3 mRNA for protein-tyrosine phosphatase” value (first entry (r8)) was 0.65 log 2 and the “Induction (log 2), W28616 49b9 Homo sapiens cDNA” value (first entry (r15)) was 0.30 log 2. The “Induction (log 2), W28616 49b9 Homo sapiens cDNA” value (second entry (r30)) was −0.05 log 2 and the “Induction (log 2), D13540 Homo sapiens SH-PTP3 mRNA for protein-tyrosine phosphatase” value (second entry (r54)) was 0.40 log 2.
